Target: T1, catalytic domain of human collagenase 3 (MMP-13) (Homo sapiens, UniProt P45452)
T1 construct: Determining the enzyme activity of the catalytic domain of human collagenase 3 (MMP-13); purchased INVITEK, Berlin 30 100 803
Assay: Enzyme activity of the catalytic domain of human collagenase 3 (MMP-13), fluorogenic substrate
Format: biochemical
Settings: catalytic domain, activated proenzyme, pH 7.5; read-out: IC50 MMP13
Experimental: Determining the enzyme activity of the catalytic domain of human collagenase 3 (MMP-13).
Activating the proenzyme:
2 parts by volume of proenzyme are incubated with 1 part by volume of APMA solution at 37° C. for 1.5 hours. The APMA solution is prepared from a 10 mmol/L solution of p-aminophenylmercuric acetate in 0.1 mmol/L NaOH by diluting with 3 parts by volume of tris/HCl buffer, pH 7.5 (see below). The pH is adjusted to between 7.0 and 7.5 by adding 1 mmol/L HCl. After the enzyme has been activated, it is diluted to a concentration of 1.67 μg/ml using the tris/HCl buffer.
In order to measure the enzyme activity, 10 μL of enzyme solution are incubated for 15 minutes with 10 μL of a 3% (v/v) buffered solution of dimethyl sulfoxide (reaction 1). In order to measure the enzyme inhibitor activity, 10 μL of enzyme solution are incubated with 10 μL of a 3% (v/v) buffered solution of dimethyl sulfoxide containing the enzyme inhibitor (reaction 2).
In the case of both reaction 1 and reaction 2, the enzyme reaction is monitored by fluorescence spectroscopy (328 nm (extinction)/393 nm (emission)) after adding 10 μL of a 3% (v/v) aqueous solution of dimethyl sulfoxide containing 0.75 mmol of the substrate/L.
The enzyme activity is depicted as increase in extinction/minute.
The effect of the inhibitor is calculated as a percentage inhibition using the following formula: % inhibition=100−[(increase in extinction/minute in reaction 2)/(increase in extinction/minute in reaction 1)×100].
The IC50, i.e. the inhibitor concentration which is required for inhibiting the enzyme activity by 50%, is determined graphically by plotting the percentage inhibitions at different inhibitor concentrations.
The buffer solution contains 0.05% Brij (Sigma, Deisenhofen, Germany) and 0.1 mol of tris/HCl/L, 0.1 mol of NaCl/L and 0.01 mol of CaCl2/L (pH=7.5). The enzyme solution contains 1.67 μg of the enzyme domain/mL.
The substrate solution contains 0.75 mmol/L of the fluorogenic substrate (7-methoxycoumarin-4-yl)acetyl-Pro-Leu-Gly-Leu-3-(2′,4′-dinitrophenyl)-L-2,3-diaminopropionyl-Ala-Arg-NH2 (Bachem, Heidelberg, Germany).

Row | IC50 [nM] | SMILES
1 | 50 | Cc1cc(CNC(=O)c2cc(C(=O)NCc3ccc(C(=O)NCCN4CCCC4)cc3)ncn2)ccc1F [Example 99]
2 | 10 | O=C(NCc1ccc(C(=O)N2CCSCC2)cc1)c1cc(C(=O)NCc2ccc3c(c2)CCO3)ncn1 [Example 72]
3 | 30 | O=C(NCc1ccc2c(c1)CCO2)c1cc(C(=O)NCc2cccs2)ncn1 [Example 39]
4 | 2.4 | COc1cccc(CNC(=O)c2cc(C(=O)NCc3ccc(NC(=O)NS(=O)(=O)c4ccc(C)cc4)cc3)ncn2)c1 [Example 118]

From patent publication US7166609B2, “Pyrimidine-4,6-dicarboxylic acid diamides for selectively inhibiting collagenases” (Sanofi-Aventis Deutschland GmbH, priority 2002, dated 2007)
